Experimental data from ChEMBL document CHEMBL4825678, “Oshimalides A and B, Sesterterpenes of the Manoalide Class from a Luffariella sp. Deep-Sea Marine Sponge: Application of Asymmetric Dihydroxylation in Structure Elucidation” (2021).
Converted amounts (≈) assume the structure as drawn.

System: Staphylococcus aureus
Experiment: Antimicrobial activity against staphylococcus aureus 209P JC-1 incubated for 20 hrs by agar dilution method
Format: functional

MIC: 51 µg/mL (≈ 128 µM)
SMILES: CC1=CC(=O)C[C@@H](C)[C@@]1(C)CC/C(C)=C/CCC1=CC[C@H](C2=CC(=O)OC2)OC1
